Assay results from patent US11414474B2, “Long-acting adrenomedullin derivatives” (University of Miyazaki, priority 2014, dated 2022).

How the values were obtained:
[1] = tested on: blood pressure of the rat; experiment: Blood pressure-lowering effect after single intravenous dose in anesthetized rats; format: in vivo; details: intravenous single dose 10 nmol/kg
Protocol: From the catheter tube of the right jugular vein, a physiological saline-heparin solution (physiological saline: 100 ml; heparin: 1000 units) was infused at 2.4 ml/hr. […] The catheter inserted in the carotid artery was connected to a pressure transducer. […] In the figure, the longitudinal axis indicates a difference obtained by subtracting the average blood pressure before the administration of each drug from the average blood pressure at the time of the administration of each drug.
In the case of these derivatives, the blood pressure-lowering effect was sustained even 90 minutes after the administration. […] The blood pressure-lowering effect of the adrenomedullin derivative shown in this test was well consistent with the prolonged half-life in blood shown in the above test.

in vivo = details: male, Wistar, rat, iv
Excerpt: Each 11 to 14-week-old male Wistar rat was anesthetized by the inhalation of isoflurane. After tracheotomy, inhalational anesthesia was controlled at an isoflurane concentration of 1.5 to 2.5% and a flow rate of 0.6 to 0.8 L/min. The right jugular vein was isolated from the rat, and a catheter tube corresponding to 26 G was inserted thereto. Next, the left carotid artery was isolated from the rat thus treated, and a catheter tube corresponding to 23 G was inserted thereto. […] From the catheter inserted in the carotid artery, 300 μl of blood was collected over time from the start of the administration. Immediately, EDTA-2Na (300 μg) and aprotinin (21 μg) were added to the obtained blood sample, and the mixture was further centrifuged under conditions involving 3000 rpm and 10 minutes to obtain plasma. The AM concentration in the plasma of each sample was measured by chemiluminescent enzyme immunoassay. The half-lives in blood of the first and second phases were calculated from the measurement results of the AM concentration in the plasma using a two-compartment model.

AM receptor = molecular target: T1, AM receptor (Homo sapiens, UniProt Q16602); experiment: Intracellular cAMP concentration-increasing effect in AM receptor-expressing HEK293 cells (cAMP ELISA); format: cell-based
T1 construct: expressed in transfected cells; host or cells: HEK293 cell line
Protocol: Then, the intracellular cAMP concentration in the HEK293 cells of each test sample was measured using an ELISA kit for cAMP measurement (GE Healthcare Japan Corp., #RPN2251).

[2] = tested on: DSS-induced enteritis (inflammatory bowel disease model); experiment: Therapeutic effect on DSS-induced inflammatory bowel disease model (total score, length of intestinal tract); format: in vivo, mouse; set-up: total score, median value / total score, mean±standard deviation: scale not given here; details: for total score as compared with the control group: Steel's multiple comparison test, p<0.05 or P<0.01
Protocol: The body weight of the subject mouse was measured 3, 5, 7, 10 and 14 days after the start of the administration.
The body weight of the subject mouse and the form of stool thereof were evaluated 3, 5, 7, 10 and 14 days after the start of the administration on the basis of scoring criteria given below. The obtained scores were summed to calculate the total score of each sample.
The intestinal tract excised by anatomy was opened along its longitudinal axis, and fat tissues were removed, followed by washing with physiological saline. Next, the length of the intestinal tract was measured.
The total score evaluated by the procedures described above is indicated by a median value [mean±standard deviation]. The total scores of the control group obtained 3, 5, 7, 10 and 14 days after the start of the administration were 0.0 [0.6±0.3], 4.0 [3.7±0.4], 6.0 [5.4±0.5], 3.5 [4.1±0.4] and 0.0 [0.0±0.0], respectively.

[3] = second-phase half-life in blood
[4] = 0.02 nmol/kg/hr, 3 days after the start of the administration
[5] = 0.1 nmol/kg/hr, 3 days after the start of the administration
[6] = 0.5 nmol/kg/hr, 3 days after the start of the administration

T1 sequence (Q16602 23-461): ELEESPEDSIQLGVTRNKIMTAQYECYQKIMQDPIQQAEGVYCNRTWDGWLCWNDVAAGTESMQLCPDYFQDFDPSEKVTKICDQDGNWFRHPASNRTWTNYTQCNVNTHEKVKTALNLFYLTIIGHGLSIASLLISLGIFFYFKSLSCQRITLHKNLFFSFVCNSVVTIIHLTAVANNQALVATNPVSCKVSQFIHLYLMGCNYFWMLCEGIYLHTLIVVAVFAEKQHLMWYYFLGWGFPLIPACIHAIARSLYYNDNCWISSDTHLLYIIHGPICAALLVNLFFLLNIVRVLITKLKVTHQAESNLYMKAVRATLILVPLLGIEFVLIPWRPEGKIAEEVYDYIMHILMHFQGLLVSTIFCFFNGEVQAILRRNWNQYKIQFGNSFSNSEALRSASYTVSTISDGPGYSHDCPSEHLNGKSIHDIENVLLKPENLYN
T1 sequence (O60895 43-175 partner): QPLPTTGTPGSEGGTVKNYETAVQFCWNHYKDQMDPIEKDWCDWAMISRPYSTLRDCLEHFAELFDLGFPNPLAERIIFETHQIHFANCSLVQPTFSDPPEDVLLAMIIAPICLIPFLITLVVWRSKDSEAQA

## CCCCCCCCCCCCCCCC(=O)N[C@@H](Cc1ccc(O)cc1)C(=O)N[C@@H](CCCNC(=N)N)C(=O)N[C@@H](CCC(N)=O)C(=O)N[C@@H](CO)C(=O)N[C@@H](CCSC)C(=O)N[C@@H](CC(N)=O)C(=O)N[C@@H](CC(N)=O)C(=O)N[C@@H](Cc1ccccc1)C(=O)N[C@@H](CCC(N)=O)C(=O)NCC(=O)N[C@@H](CC(C)C)C(=O)N[C@@H](CCCNC(=N)N)C(=O)N[C@@H](CO)C(=O)N[C@@H](Cc1ccccc1)C(=O)NCC(=O)N[C@H]1CSSC[C@@H](C(=O)N[C@H](C(=O)N[C@H](C(=O)N[C@@H](CCC(N)=O)C(=O)N[C@@H](CCCCN)C(=O)N[C@@H](CC(C)C)C(=O)N[C@@H](C)C(=O)N[C@@H](Cc2c[nH]cn2)C(=O)N[C@@H](CCC(N)=O)C(=O)N[C@H](C(=O)N[C@@H](Cc2ccc(O)cc2)C(=O)N[C@@H](CCC(N)=O)C(=O)N[C@@H](Cc2ccccc2)C(=O)N[C@H](C(=O)N[C@@H](CC(=O)O)C(=O)N[C@@H](CCCCN)C(=O)N[C@@H](CC(=O)O)C(=O)N[C@@H](CCCCN)C(=O)N[C@@H](CC(=O)O)C(=O)N[C@@H](CC(N)=O)C(=O)N[C@H](C(=O)N[C@@H](C)C(=O)N2CCC[C@H]2C(=O)N[C@@H](CCCNC(=N)N)C(=O)N[C@@H](CO)C(=O)N[C@@H](CCCCN)C(=O)N[C@H](C(=O)N[C@@H](CO)C(=O)N2CCC[C@H]2C(=O)N[C@@H](CCC(N)=O)C(=O)NCC(=O)N[C@@H](Cc2ccc(O)cc2)C(N)=O)[C@@H](C)CC)C(C)C)[C@@H](C)O)[C@@H](C)CC)C(C)C)[C@@H](C)O)NC(=O)[C@H]([C@@H](C)O)NC(=O)CNC(=O)[C@H](Cc2ccccc2)NC(=O)[C@H](CCCNC(=N)N)NC1=O [Pal-h.AM(1-52)]
[1]
  effect on blood pressure: lowered the blood pressure
  maximum pressure drop value compared with h.AM(1-52): lower than the value of h.AM(1-52)
In vivo; first-phase half-life in blood
  half-life: 3.51 min
In vivo; [3]
  half-life: 123 min
AM receptor
  EC50: 3.24 nM
AM receptor; AM receptor-expressing HEK293 cells
  maximum response value of increase in cAMP concentration as compared with h.AM(1-52): substantially equivalent

## CC[C@H](C)[C@H](NC(=O)[C@H](CCC(N)=O)NC(=O)[C@H](Cc1c[nH]cn1)NC(=O)[C@H](C)NC(=O)[C@H](CC(C)C)NC(=O)[C@H](CCCCN)NC(=O)[C@H](CCC(N)=O)NC(=O)[C@@H](NC(=O)[C@@H](NC(=O)[C@@H]1CSSC[C@H](NC(=O)CNC(=O)[C@H](Cc2ccccc2)NC(=O)[C@H](CO)NC(=O)[C@H](CCCNC(=N)N)NC(=O)[C@H](CC(C)C)NC(=O)CNC(=O)[C@H](CCC(N)=O)NC(=O)[C@H](Cc2ccccc2)NC(=O)[C@H](CC(N)=O)NC(=O)[C@H](CC(N)=O)NC(=O)[C@H](CCSC)NC(=O)[C@H](CO)NC(=O)[C@H](CCC(N)=O)NC(=O)[C@H](CCCNC(=N)N)NC(=O)[C@@H](N)Cc2ccc(O)cc2)C(=O)N[C@@H](CCCNC(=N)N)C(=O)N[C@@H](Cc2ccccc2)C(=O)NCC(=O)N[C@@H]([C@@H](C)O)C(=O)N1)[C@@H](C)O)C(C)C)C(=O)N[C@@H](Cc1ccc(O)cc1)C(=O)N[C@@H](CCC(N)=O)C(=O)N[C@@H](Cc1ccccc1)C(=O)N[C@H](C(=O)N[C@@H](CC(=O)O)C(=O)N[C@@H](CCCCN)C(=O)N[C@@H](CC(=O)O)C(=O)N[C@@H](CCCCN)C(=O)N[C@@H](CC(=O)O)C(=O)N[C@@H](CC(N)=O)C(=O)N[C@H](C(=O)N[C@@H](C)C(=O)N1CCC[C@H]1C(=O)N[C@@H](CCCNC(=N)N)C(=O)N[C@@H](CO)C(=O)N[C@@H](CCCCN)C(=O)N[C@H](C(=O)N[C@@H](CO)C(=O)N1CCC[C@H]1C(=O)N[C@@H](CCC(N)=O)C(=O)NCC(=O)N[C@@H](Cc1ccc(O)cc1)C(N)=O)[C@@H](C)CC)C(C)C)[C@@H](C)O [h.AM(1-52), reference compound]
[1]
  effect on blood pressure: lowered the blood pressure
  time after the administration at which the blood pressure before the administration was restored: 30 min
  time of maximum pressure drop after the administration: 2 min
In vivo; first-phase half-life in blood
  half-life: 0.61 min
In vivo; [3]
  half-life: 18.9 min

## PEG5000-h.AM(1-52): human adrenomedullin (1-52) N-terminally linked to PEG having an average molecular weight of 5000 via 1-oxo-1,6-hexanediyl
[1]
  effect on blood pressure: lowered the blood pressure
  maximum pressure drop value compared with h.AM(1-52): lower than the value of h.AM(1-52)
[2]; [4]
  total score, mean±standard deviation: 0.8±0.2
  total score, median value: 1.0
[2]; 0.02 nmol/kg/hr, 5 days
  total score, mean±standard deviation: 2.8±0.5
  total score, median value: 2.5
[2]; 0.02 nmol/kg/hr, 7 days
  total score, mean±standard deviation: 5.7±0.4
  total score, median value: 5.5
[2]; 0.02 nmol/kg/hr, 10 days
  total score, mean±standard deviation: 3.1±0.8
  total score, median value: 2.5
[2]; 0.02 nmol/kg/hr, 14 days
  length of the intestinal tract (mean±standard deviation): 69.4±1.5 mm
  total score, mean±standard deviation: 0.0±0.0
  total score, median value: 0.0
[2]; [5]
  total score, mean±standard deviation: 0.7±0.3
  total score, median value: 0.0
[2]; 0.1 nmol/kg/hr, 5 days
  total score, mean±standard deviation: 1.9±0.5
  total score, median value: 1.5
[2]; 0.1 nmol/kg/hr, 7 days
  total score, mean±standard deviation: 4.1±0.4
  total score, median value: 5.0
[2]; 0.1 nmol/kg/hr, 10 days
  total score, mean±standard deviation: 2.0±0.5
  total score, median value: 2.0
  total score as compared with the control group: significant decrease
[2]; 0.1 nmol/kg/hr, 14 days
  length of the intestinal tract (mean±standard deviation): 71.4±0.9 mm
  total score, mean±standard deviation: 0.0±0.0
  total score, median value: 0.0
[2]; 0.5 nmol/kg/hr, 5, 7 and 10 days
  total score as compared with the control group: significant decrease
[2]; [6]
  total score, mean±standard deviation: 1.3±0.3
  total score, median value: 1.0
[2]; 0.5 nmol/kg/hr, 5 days
  total score, mean±standard deviation: 1.1±0.3
  total score, median value: 1.5
[2]; 0.5 nmol/kg/hr, 7 days
  total score, mean±standard deviation: 3.0±0.3
  total score, median value: 3.0
[2]; 0.5 nmol/kg/hr, 10 days
  total score, mean±standard deviation: 2.1±0.4
  total score, median value: 2.0
[2]; 0.5 nmol/kg/hr, 14 days
  length of the intestinal tract (mean±standard deviation): 72.4±0.9 mm
  total score, mean±standard deviation: 0.0±0.0
  total score, median value: 0.0
[2]; all of 0.02, 0.1 and 0.5 nmol/kg/hr, Dunnett's multiple comparison test, P<0.05 or P<0.01
  length of the intestinal tract as compared with the control group: significantly different
